Source: the Kinase Knowledgebase extract (Sharma et al. 2016)

Target: EGFR (UniProt P00533)
Sequence (P00533 whole entry, looked up): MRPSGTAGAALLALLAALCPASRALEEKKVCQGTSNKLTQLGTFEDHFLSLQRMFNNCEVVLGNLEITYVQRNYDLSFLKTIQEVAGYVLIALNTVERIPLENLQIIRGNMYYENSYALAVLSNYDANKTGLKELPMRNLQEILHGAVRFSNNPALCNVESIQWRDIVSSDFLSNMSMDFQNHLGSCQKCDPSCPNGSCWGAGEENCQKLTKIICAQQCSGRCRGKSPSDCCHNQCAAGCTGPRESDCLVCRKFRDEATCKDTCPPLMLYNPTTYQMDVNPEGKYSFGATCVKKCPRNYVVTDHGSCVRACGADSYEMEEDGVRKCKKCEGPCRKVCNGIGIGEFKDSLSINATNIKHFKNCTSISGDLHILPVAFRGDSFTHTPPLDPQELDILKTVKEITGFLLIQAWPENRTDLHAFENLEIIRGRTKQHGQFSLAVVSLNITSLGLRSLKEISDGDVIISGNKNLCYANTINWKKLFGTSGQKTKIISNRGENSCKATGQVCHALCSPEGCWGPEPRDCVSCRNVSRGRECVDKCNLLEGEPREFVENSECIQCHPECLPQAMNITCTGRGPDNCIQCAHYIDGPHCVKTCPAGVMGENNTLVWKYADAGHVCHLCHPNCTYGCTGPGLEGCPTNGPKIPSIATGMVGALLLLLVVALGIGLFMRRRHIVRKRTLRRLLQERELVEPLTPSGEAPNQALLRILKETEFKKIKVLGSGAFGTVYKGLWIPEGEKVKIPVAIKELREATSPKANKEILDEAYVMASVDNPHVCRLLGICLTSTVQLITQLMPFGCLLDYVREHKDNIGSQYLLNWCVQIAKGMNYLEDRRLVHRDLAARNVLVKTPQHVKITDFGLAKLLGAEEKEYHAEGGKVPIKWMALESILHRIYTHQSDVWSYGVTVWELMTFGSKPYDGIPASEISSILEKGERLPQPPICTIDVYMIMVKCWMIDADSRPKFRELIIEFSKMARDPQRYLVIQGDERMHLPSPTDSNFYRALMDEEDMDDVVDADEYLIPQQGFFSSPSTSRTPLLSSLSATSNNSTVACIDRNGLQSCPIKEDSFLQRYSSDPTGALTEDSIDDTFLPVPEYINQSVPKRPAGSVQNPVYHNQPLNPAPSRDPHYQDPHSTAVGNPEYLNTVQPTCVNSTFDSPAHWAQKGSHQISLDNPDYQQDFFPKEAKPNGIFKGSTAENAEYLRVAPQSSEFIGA

In the case of `COc1cc2c(Nc3cc(F)c(Br)c(F)c3)ncnc2cc1OCC1CN(C)CCO1` (stereo not drawn), the IC50 is reported as less than 50 nM.

Work on `COc1cc2c(Nc3cc(F)ccc3F)ncnc2cc1O[C@@H]1CO[C@@H]2[C@H]1OC[C@H]2F` yielded an IC50 of less than 50 nM.

For `COc1cc2c(Nc3cc(C)cc(C)c3)ncnc2cc1O[C@@H]1CO[C@@H]2[C@H]1OC[C@H]2F`, the IC50 was less than 50 nM.

Compound `COc1cc2c(Nc3ccc(Br)c(Cl)c3F)ncnc2cc1OC[C@H]1CN2CCOC[C@H]2CO1` has an IC50 of less than 50 nM.

`COc1cc2c(Nc3ccc(Cl)c(Cl)c3)ncnc2cc1OCC1CN(CCC2OCCO2)CCO1` (stereo not drawn) was tested, and the IC50 was less than 50 nM.

Compound `COc1cc2c(Nc3ccc(Br)c(Cl)c3F)ncnc2cc1OC[C@@H]1CN2CCC[C@H]2CO1` has an IC50 of less than 50 nM.

With `COc1cc(Nc2ncnc3cc(O[C@@H]4CO[C@@H]5[C@H]4OC[C@H]5F)c(OC)cc23)c(OC)cc1Cl` the IC50 was less than 50 nM.

Work on `COc1cc2c(Nc3cccc(F)c3F)ncnc2cc1O[C@@H]1CO[C@@H]2[C@H]1OC[C@H]2F` yielded an IC50 of less than 50 nM.

`COc1cc2c(Nc3ccc(Cl)c(Cl)c3)ncnc2cc1OCC1CC2CCC(C1)N2C` (stereo not drawn) was tested, and the IC50 was less than 50 nM.

`COc1cc2c(Nc3ccc(Cl)c(Cl)c3)ncnc2cc1OCC1CN(CC2CCCCC2)CCO1` (stereo not drawn) showed an IC50 of less than 50 nM.

Compound `COc1cc2c(Nc3cc(Cl)c(Br)cc3F)ncnc2cc1OC[C@H]1C[C@@H]2CN(C)C[C@@H]2C1` has an IC50 of less than 50 nM.

Work on `COc1cc2c(Nc3ccc(Cl)c(Cl)c3)ncnc2cc1OCC1CN(CC2CCCCO2)CCO1` (stereo not drawn) yielded an IC50 of less than 50 nM.

`COc1cc2c(Nc3ccc(Br)c(Cl)c3)ncnc2cc1O[C@@H]1CO[C@@H]2[C@H]1OC[C@H]2NS(C)(=O)=O` was tested, and the IC50 was less than 50 nM.

`COc1cc2c(Nc3cc(Cl)c(Cl)cc3F)ncnc2cc1OC[C@@H]1CO[C@H]2[C@@H]1OC[C@@H]2O` was tested, and the IC50 was less than 50 nM.

Compound `CCN(CC)c1ccc(-c2csc(COc3cc4ncnc(Nc5ccc(Cl)c(Cl)c5)c4cc3OC)n2)cc1` has an IC50 of less than 50 nM.

For `COc1cc2c(Nc3cccc(Cl)c3C)ncnc2cc1OCC1CN(C)CCO1` (stereo not drawn), the IC50 was less than 50 nM.

`COc1cc2c(Nc3cc(F)c(Oc4ccc(Cl)cc4)c(F)c3)ncnc2cc1O[C@@H]1CO[C@@H]2[C@H]1OC[C@H]2F` was tested, and the IC50 was less than 50 nM.

Work on `COc1cc2c(Nc3ccc(Br)c(Cl)c3)ncnc2cc1O[C@H]1CO[C@@H]2[C@H]1OC[C@@H]2N(C)C` yielded an IC50 of less than 50 nM.

Work on `COc1cc2c(Nc3ccc(Br)c(Cl)c3Cl)ncnc2cc1O[C@H]1CO[C@H]2[C@@H]1OC[C@@H]2OC` yielded an IC50 of less than 50 nM.

`COc1cc2c(Nc3ccc(Cl)c(Cl)c3)ncnc2cc1OCC1CN(C(C)=N)CCCO1` (stereo not drawn) gave an IC50 of less than 50 nM.

In the case of `COC[C@@]1(OC)CO[C@@H]2[C@H]1OC[C@H]2Oc1cc2ncnc(Nc3ccc(Br)c(Cl)c3)c2cc1OC`, the IC50 is reported as less than 50 nM.

`COc1cc2c(Nc3ccc(Br)c(Cl)c3F)ncnc2cc1OC[C@@H]1CN(C)CC(=O)N1` showed an IC50 of less than 50 nM.

In the case of `COc1cc2c(Nc3ccc(Cl)c(Cl)c3F)ncnc2cc1OC[C@@H]1CN2CCC[C@H]2C(=O)N1C`, the IC50 is reported as less than 50 nM.

For `COc1cc2c(Nc3ccc(Cl)c(Cl)c3)ncnc2cc1OCc1csc(COC(=O)c2ccccc2)n1`, the IC50 was less than 50 nM.

In the case of `COc1cc2c(Nc3ccc(Cl)c(Cl)c3)ncnc2cc1OCc1nc(N2CCNCC2)no1`, the IC50 is reported as less than 50 nM.

`COc1cc2c(Nc3ccc(Cl)c(Cl)c3)ncnc2cc1OCc1csc(C2CCCNC2)n1` (stereo not drawn) was tested, and the IC50 was less than 50 nM.

`COc1cc2c(Nc3ccc(Cl)c(Cl)c3)ncnc2cc1OCc1noc(-c2ccccc2)n1` was tested, and the IC50 was less than 50 nM.

`COc1cc2c(Nc3cc(F)c(F)cc3F)ncnc2cc1O[C@@H]1CO[C@@H]2[C@H]1OC[C@H]2F` gave an IC50 of less than 50 nM.

`COc1cc2c(Nc3ccc(Cl)c(Cl)c3)ncnc2cc1OCc1nc(-c2cccnc2)cs1` gave an IC50 of less than 50 nM.

`COc1cc2c(Nc3ccc(Cl)c(Cl)c3)ncnc2cc1OCC1CNCC(C)(C)O1` (stereo not drawn) showed an IC50 of less than 50 nM.

`COc1cc2c(Nc3ccc(Cl)cc3F)ncnc2cc1OCC1CN(C)CCO1` (stereo not drawn) showed an IC50 of less than 50 nM.

Work on `COC(=O)CCC(=O)N1CCOC(COc2cc3ncnc(Nc4ccc(Cl)c(Cl)c4)c3cc2OC)C1` (stereo not drawn) yielded an IC50 of less than 50 nM.

In the case of `CCCN1CCCOC(COc2cc3ncnc(Nc4ccc(Cl)c(Cl)c4)c3cc2OC)C1` (stereo not drawn), the IC50 is reported as 50 to 1000 nM.

Work on `COc1cc2c(Nc3ccc(C)c(Br)c3)ncnc2cc1OCC1CN(C)CCO1` (stereo not drawn) yielded an IC50 of less than 50 nM.

With `COc1cc2c(Nc3cc(Cl)c(Br)cc3F)ncnc2cc1O[C@@H]1CO[C@@H]2[C@H]1OC[C@H]2F` the IC50 was less than 50 nM.

Work on `CC(C)Oc1cc2c(Nc3ccc(Cl)c(Cl)c3)ncnc2cc1OCC1CNCCO1` (stereo not drawn) yielded an IC50 of less than 50 nM.

Work on `COc1cc2c(Nc3ccc(Cl)c(Cl)c3)ncnc2cc1OCc1nc([C@@H]2CCCN2)no1` yielded an IC50 of less than 50 nM.

`COc1cc2c(Nc3ccc(Br)c(Cl)c3F)ncnc2cc1OCC1CO[C@@H]2[C@@H](OC)CO[C@H]12` (stereo partly drawn) showed an IC50 of less than 50 nM.

`COc1cc2c(Nc3cc(Cl)c(Br)cc3F)ncnc2cc1OCC1CN(C)C(C)(C)CO1` (stereo not drawn) showed an IC50 of less than 50 nM.

`COc1cc2c(Nc3ccc(Cl)c(Cl)c3)ncnc2cc1OCC1CN(C(=O)C2CCCC2)CCO1` (stereo not drawn) showed an IC50 of less than 50 nM.

For `COc1cc2c(Nc3ccc(Cl)c(Cl)c3)ncnc2cc1OCc1nccn1Cc1ccccc1`, the IC50 was less than 50 nM.

Work on `COc1cc2c(Nc3ccc(C)c(Cl)c3Cl)ncnc2cc1OCC1CN(C)CCO1` (stereo not drawn) yielded an IC50 of less than 50 nM.

With `COc1cc2c(Nc3ccc(Br)c(Cl)c3F)ncnc2cc1O[C@@H]1CO[C@@H]2[C@H]1OC[C@H]2F` the IC50 was less than 50 nM.

Compound `COc1cc2c(Nc3ccc(Cl)c(Cl)c3)ncnc2cc1OCc1csc(C2CCCN(C)C2)n1` (stereo not drawn) has an IC50 of less than 50 nM.

`COc1cc2c(Nc3ccc(F)c(Cl)c3F)ncnc2cc1OCC1CN(C)C(C)(C)CO1` (stereo not drawn) was tested, and the IC50 was less than 50 nM.

In the case of `COc1cc2c(Nc3ccc(Cl)c(Cl)c3)ncnc2cc1OCc1c(F)cccc1F`, the IC50 is reported as less than 50 nM.

Work on `CN1CCOC(COc2cc3ncnc(Nc4ccc(Cl)c(Cl)c4)c3cc2O)C1` (stereo not drawn) yielded an IC50 of less than 50 nM.

For `C=CCCCCN1CCOC(COc2cc3ncnc(Nc4ccc(Cl)c(Cl)c4)c3cc2OC)C1` (stereo not drawn), the IC50 was less than 50 nM.
